From article PMC7156458, “Synthetic biology based construction of biological activity-related library of fungal decalin-containing diterpenoid pyrones” (Nature Communications, 2020)

Biological target: Aβ42 (Homo sapiens, UniProt P05067)
Experiment: Th-T (thioflavin-T) assay of Aβ42 aggregation
Format: biochemical

Sequence of Aβ42 (P05067 672-713): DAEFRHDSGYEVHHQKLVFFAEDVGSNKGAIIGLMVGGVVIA

C=C1CC[C@@H]2[C@](C)(CC[C@H]3O[C@H](C=C(C)C)C[C@@]23C)[C@@H]1Cc1c(OC)oc(CO)c(C(=O)OC)c1=O [Compound 21]
Fig. 7a Th-T reading, mean of three wells (column suffix _20, reading M101): 0.9158 | Fig. 7a Th-T reading, mean of three wells (column suffix _20, reading M102): 0.9188 | Fig. 7a Th-T reading, mean of three wells (column suffix _20, reading M103): 0.9187 | Fig. 7a Th-T reading, mean of three wells (column suffix _20, reading M104): 0.9595 | Fig. 7a Th-T reading, mean of three wells (column suffix _20, reading M105): 0.9387 | Fig. 7a Th-T reading, mean of three wells (column suffix _20, reading M106): 0.9399 | Th-T fluorescence, mean of three wells (Fig. 7a) (column suffix _50, measurement M19): 0.2078 | Th-T fluorescence, mean of three wells (Fig. 7a) (column suffix _50, measurement M20): 0.2087 | Th-T fluorescence, mean of three wells (Fig. 7a) (column suffix _50, measurement M21): 0.2125 | Th-T fluorescence, mean of three wells (Fig. 7a) (column suffix _50, measurement M22): 0.212 | Th-T fluorescence, mean of three wells (Fig. 7a) (column suffix _50, measurement M23): 0.2107 | Th-T fluorescence, mean of three wells (Fig. 7a) (column suffix _50, measurement M24): 0.2101 | Th-T fluorescence, mean of three wells (Fig. 7a) (column suffix _50, measurement M25): 0.2098 | Th-T fluorescence, mean of three wells (Fig. 7a) (column suffix _50, measurement M26): 0.2113 | Th-T fluorescence, mean of three wells (Fig. 7a) (column suffix _50, measurement M27): 0.2118 | Th-T fluorescence, mean of three wells (Fig. 7a) (column suffix _50, measurement M28): 0.2093 | Th-T fluorescence, mean of three wells (Fig. 7a) (column suffix _50, measurement M29): 0.2091 | Th-T assay signal, mean of three wells (Fig. 7a) (column suffix _50, reading M1): 0.2216 | Th-T assay signal, mean of three wells (Fig. 7a) (column suffix _50, reading M2): 0.219 | Th-T assay signal, mean of three wells (Fig. 7a) (column suffix _50, reading M3): 0.2148 | Th-T assay signal, mean of three wells (Fig. 7a) (column suffix _50, reading M4): 0.2093 | Th-T assay signal, mean of three wells (Fig. 7a) (column suffix _50, reading M5): 0.2111 | Th-T assay signal, mean of three wells (Fig. 7a) (column suffix _50, reading M6): 0.209 | Th-T assay signal, mean of three wells (Fig. 7a) (column suffix _50, reading M7): 0.2096 | Th-T assay signal, mean of three wells (Fig. 7a) (column suffix _50, reading M8): 0.2075 | Th-T assay signal, mean of three wells (Fig. 7a) (column suffix _50, reading M9): 0.2085 | Th-T assay signal, mean of three wells (Fig. 7a) (column suffix _50, reading M10): 0.2097 | Th-T assay signal, mean of three wells (Fig. 7a) (column suffix _50, reading M11): 0.2085 | Th-T assay signal, mean of three wells (Fig. 7a) (column suffix _50, reading M12): 0.2082 | Th-T assay signal, mean of three wells (Fig. 7a) (column suffix _50, reading M13): 0.2085 | Th-T assay signal, mean of three wells (Fig. 7a) (column suffix _50, reading M14): 0.2061 | Th-T assay signal, mean of three wells (Fig. 7a) (column suffix _50, reading M15): 0.2099 | Th-T assay signal, mean of three wells (Fig. 7a) (column suffix _50, reading M16): 0.2095 | Th-T assay signal, mean of three wells (Fig. 7a) (column suffix _50, reading M17): 0.2108 | Th-T assay signal, mean of three wells (Fig. 7a) (column suffix _50, reading M18): 0.2093 | Fig. 7a Th-T reading, mean of three wells (column suffix _50, reading M85): 0.38 | Fig. 7a Th-T reading, mean of three wells (column suffix _50, reading M86): 0.3921 | Fig. 7a Th-T reading, mean of three wells (column suffix _50, reading M87): 0.401 | Fig. 7a Th-T reading, mean of three wells (column suffix _50, reading M88): 0.4081 | Fig. 7a Th-T reading, mean of three wells (column suffix _50, reading M89): 0.4167 | Fig. 7a Th-T reading, mean of three wells (column suffix _50, reading M90): 0.4233 | Fig. 7a Th-T reading, mean of three wells (column suffix _50, reading M91): 0.4313 | Fig. 7a Th-T reading, mean of three wells (column suffix _50, reading M92): 0.4386 | Fig. 7a Th-T reading, mean of three wells (column suffix _50, reading M93): 0.4449 | Fig. 7a Th-T reading, mean of three wells (column suffix _50, reading M94): 0.4505 | Fig. 7a Th-T reading, mean of three wells (column suffix _50, reading M95): 0.4544 | Fig. 7a Th-T reading, mean of three wells (column suffix _50, reading M96): 0.4583 | Fig. 7a Th-T reading, mean of three wells (column suffix _50, reading M97): 0.4639 | Fig. 7a Th-T reading, mean of three wells (column suffix _50, reading M98): 0.4638 | Fig. 7a Th-T reading, mean of three wells (column suffix _50, reading M99): 0.4696 | Fig. 7a Th-T reading, mean of three wells (column suffix _50, reading M100): 0.4671 | Fig. 7a Th-T reading, mean of three wells (column suffix _50, reading M101): 0.4718 | Fig. 7a Th-T reading, mean of three wells (column suffix _50, reading M102): 0.4727 | Fig. 7a Th-T reading, mean of three wells (column suffix _50, reading M103): 0.4762 | Fig. 7a Th-T reading, mean of three wells (column suffix _50, reading M104): 0.4757 | Fig. 7a Th-T reading, mean of three wells (column suffix _50, reading M105): 0.4769 | Fig. 7a Th-T reading, mean of three wells (column suffix _50, reading M106): 0.4817 | Th-T fluorescence, mean of three wells (compound at 10, reading M41 of time course): 0.2566 | Th-T fluorescence, mean of three wells (compound at 10, reading M42 of time course): 0.2579 | Th-T fluorescence, mean of three wells (compound at 10, reading M43 of time course): 0.2567 | Th-T fluorescence, mean of three wells (compound at 10, reading M44 of time course): 0.2585 | Th-T fluorescence, mean of three wells (compound at 10, reading M45 of time course): 0.2609 | Th-T fluorescence, mean of three wells (compound at 10, reading M46 of time course): 0.2644 | Th-T fluorescence, mean of three wells (compound at 10, reading M47 of time course): 0.2626 | Th-T fluorescence, mean of three wells (compound at 10, reading M48 of time course): 0.2676 | Th-T fluorescence, mean of three wells (compound at 10, reading M49 of time course): 0.2662 | Th-T fluorescence, mean of three wells (compound at 10, reading M50 of time course): 0.2709 | Th-T fluorescence, mean of three wells (compound at 10, reading M51 of time course): 0.2759 | Th-T fluorescence, mean of three wells (compound at 10, reading M52 of time course): 0.2782 | Th-T fluorescence, mean of three wells (compound at 10, reading M53 of time course): 0.2826 | Th-T fluorescence, mean of three wells (compound at 10, reading M54 of time course): 0.2883 | Th-T fluorescence, mean of three wells (compound at 10, reading M55 of time course): 0.2969 | Th-T fluorescence, mean of three wells (compound at 10, reading M56 of time course): 0.3032 | Th-T fluorescence, mean of three wells (compound at 10, reading M57 of time course): 0.3204 | Th-T fluorescence, mean of three wells (compound at 10, reading M58 of time course): 0.3339 | Th-T fluorescence, mean of three wells (compound at 10, reading M59 of time course): 0.3536 | Th-T fluorescence, mean of three wells (compound at 10, reading M60 of time course): 0.3831 | Th-T fluorescence, mean of three wells (compound at 10, reading M61 of time course): 0.414 | Th-T fluorescence, mean of three wells (compound at 10, reading M62 of time course): 0.4619 | Th-T fluorescence, mean of three wells (compound at 20, reading M41 of time course): 0.2134 | Th-T fluorescence, mean of three wells (compound at 20, reading M42 of time course): 0.2125 | Th-T fluorescence, mean of three wells (compound at 20, reading M43 of time course): 0.2115 | Th-T fluorescence, mean of three wells (compound at 20, reading M44 of time course): 0.212 | Th-T fluorescence, mean of three wells (compound at 20, reading M45 of time course): 0.2129 | Th-T fluorescence, mean of three wells (compound at 20, reading M46 of time course): 0.214 | Th-T fluorescence, mean of three wells (compound at 20, reading M47 of time course): 0.2155 | Th-T fluorescence, mean of three wells (compound at 20, reading M48 of time course): 0.2155 | Th-T fluorescence, mean of three wells (compound at 20, reading M49 of time course): 0.2153 | Th-T fluorescence, mean of three wells (compound at 20, reading M50 of time course): 0.2164 | Th-T fluorescence, mean of three wells (compound at 20, reading M51 of time course): 0.2208 | Th-T fluorescence, mean of three wells (compound at 20, reading M52 of time course): 0.2184 | Th-T fluorescence, mean of three wells (compound at 20, reading M53 of time course): 0.2214 | Th-T fluorescence, mean of three wells (compound at 20, reading M54 of time course): 0.2246 | Th-T fluorescence, mean of three wells (compound at 20, reading M55 of time course): 0.224 | Th-T fluorescence, mean of three wells (compound at 20, reading M56 of time course): 0.2282 | Th-T fluorescence, mean of three wells (compound at 20, reading M57 of time course): 0.2293 | Th-T fluorescence, mean of three wells (compound at 20, reading M58 of time course): 0.2297 | Th-T fluorescence, mean of three wells (compound at 20, reading M59 of time course): 0.2309 | Th-T fluorescence, mean of three wells (compound at 20, reading M60 of time course): 0.2314 | Th-T fluorescence, mean of three wells (compound at 20, reading M61 of time course): 0.2372 | Th-T fluorescence, mean of three wells (compound at 20, reading M62 of time course): 0.2381 | Th-T fluorescence, mean of three wells (compound at 50, reading M41 of time course): 0.2143 | Th-T fluorescence, mean of three wells (compound at 50, reading M42 of time course): 0.2133 | Th-T fluorescence, mean of three wells (compound at 50, reading M43 of time course): 0.2141 | Th-T fluorescence, mean of three wells (compound at 50, reading M44 of time course): 0.2135 | Th-T fluorescence, mean of three wells (compound at 50, reading M45 of time course): 0.2151 | Th-T fluorescence, mean of three wells (compound at 50, reading M46 of time course): 0.2145 | Th-T fluorescence, mean of three wells (compound at 50, reading M47 of time course): 0.2129 | Th-T fluorescence, mean of three wells (compound at 50, reading M48 of time course): 0.2151 | Th-T fluorescence, mean of three wells (compound at 50, reading M49 of time course): 0.2127 | Th-T fluorescence, mean of three wells (compound at 50, reading M50 of time course): 0.2161 | Th-T fluorescence, mean of three wells (compound at 50, reading M51 of time course): 0.2181 | Th-T fluorescence, mean of three wells (compound at 50, reading M52 of time course): 0.2182 | Th-T fluorescence, mean of three wells (compound at 50, reading M53 of time course): 0.2185
